Test results reported in PubChem BioAssay (NCI).
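Exposure lasted 48 hours, with cells grown in 96-well plates and compounds tested at five concentrations. GI50 = concentration required for 50% inhibition of growth. Definition used: TGI = concentration required for complete inhibition of growth.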

What was measured:
Assay in all cases: NCI tumour cell line growth inhibition, 48 h
COLO 205 colon = system: COLO 205 colon
HCT-116 colon = system: HCT-116 colon
HT29 colon = system: HT29 colon
NCI-H460 lung = system: NCI-H460 lung
OVCAR-3 ovarian = system: OVCAR-3 ovarian
OVCAR-5 ovarian = system: OVCAR-5 ovarian
NCI/ADR-RES ovarian = system: NCI/ADR-RES ovarian
HCC-2998 colon = system: HCC-2998 colon
HOP-92 NSCLC = system: HOP-92 NSCLC
SW-620 colon = system: SW-620 colon

Structure (SMILES)	TGI (COLO 205 colon) [µM]	TGI (HCT-116 colon) [µM]	TGI (HT29 colon) [µM]	TGI (NCI-H460 lung) [µM]	TGI (OVCAR-3 ovarian) [µM]	TGI (OVCAR-5 ovarian) [µM]	GI50 (COLO 205 colon) [µM]	GI50 (HCT-116 colon) [µM]	GI50 (HT29 colon) [µM]	GI50 (NCI-H460 lung) [µM]	GI50 (NCI/ADR-RES ovarian) [µM]	TGI (NCI/ADR-RES ovarian) [µM]	GI50 (OVCAR-3 ovarian) [µM]	GI50 (OVCAR-5 ovarian) [µM]	GI50 (HCC-2998 colon) [µM]	TGI (HCC-2998 colon) [µM]	GI50 (HOP-92 NSCLC) [µM]	TGI (HOP-92 NSCLC) [µM]	GI50 (SW-620 colon) [µM]	TGI (SW-620 colon) [µM]
CCC1CC(C)=CCN1S(=O)(=O)c1ccc(C)cc1 (stereo unspecified)	38.4	> 100	39.3	91.7	44.9	> 100	–	–	–	–	–	–	–	–	–	–	–	–	–	–
O=C(O)c1c[nH]c2c(OCc3ccccc3)c3ccccc3c(O)c2c1=O	34.7	28.2	58.8	38.7	11.8	34.2	17.6	15	21.7	14.9	16.5	47.7	1.86	20	–	–	–	–	–	–
O=C1CC[C@H](c2ccc(O)c3c2C(=O)[C@@H]2O[C@@H]2C3=O)c2cccc(O)c21	2.88	3.89	6.3	30.4	–	20.3	1.24	1.97	2.33	3.74	3.01	15.1	–	4.55	2.12	4.29	2.38	5.12	1.6	4.92
COc1ccc(C(=O)CC(=O)C(=O)Nc2ccc(C)c(C)c2)cc1	> 82.4	> 64.4	> 100	> 56.8	> 100	> 93.7	–	–	–	–	–	–	–	–	–	> 100	–	> 100	–	> 49.2
CCCCCNC(=O)c1c(O)[nH]c(=S)[nH]c1=O	> 100	> 100	> 100	> 100	> 100	> 100	–	–	–	–	–	–	–	–	–	–	–	> 100	–	> 100
COc1ccc(-c2nc(N3CCOCC3)c3sc(CN(C)c4ncc(C(=O)NO)cn4)cc3n2)cn1	–	–	0.0331	10.9	0.0282	0.0419	–	–	< 0.01	< 0.01	–	–	< 0.01	< 0.01	–	–	0.0147	0.0508	< 0.01	1.41
CCOC(=O)C(=O)Nc1c(C)cccc1C(C)C	> 100	> 100	> 100	> 100	> 100	> 100	–	–	–	–	–	–	–	–	–	–	–	> 100	–	> 100
CCOC(=O)C(C(=O)OCC)=C1N[C@H](C(=O)OCC)CS1	> 100	> 100	> 100	> 100	> 100	> 100	–	–	–	–	–	–	–	–	–	> 100	–	–	–	> 100
C=C(C)[C@@H]1CC[C@]2(C(=O)O)CC[C@]3(C)[C@H](CC[C@@H]4[C@@]5(C)C/C(=C/c6ccc(OC)cc6)C(=O)C(C)(C)[C@@H]5CC[C@]43C)[C@@H]12	–	3.82	10.2	3.92	3.23	12	–	1.62	3.09	1.82	2.84	13.3	1.69	3.2	2.1	5.73	0.738	3.36	1.95	4.61
COc1ccccc1C(N)c1ccccc1 (stereo unspecified)	> 100	> 100	> 100	> 100	> 100	> 100	–	–	–	–	–	–	–	–	–	> 100	–	> 100	–	> 100
Cc1ccc(NC2=C(Cl)C(=O)N(Cc3ccccc3)C2=O)cc1Cl	22.1	12.5	36.6	23.6	15	43.3	7.03	3.01	14.3	6.78	6.11	20.6	3.82	15.7	–	–	–	–	5.14	16.9
COc1cc(-n2cnc(-c3ccc(Cl)cc3)c2)cc(OC)c1OC	29.8	> 100	32.8	36.8	> 100	45.4	15.4	> 100	16.1	18.6	16.9	45.1	> 100	18.6	16.8	30.4	–	–	> 100	> 100
CCOC(=O)N[C@@H]1C2CC(=O)C(O2)[C@@H]1OC (stereo partly specified)	> 100	> 100	> 100	> 100	> 100	> 100	–	–	–	–	–	–	–	–	–	> 100	–	> 100	–	> 100
COC(=O)CS(=O)c1ccccc1 (stereo unspecified)	> 100	> 100	> 100	> 100	> 100	> 100	–	–	–	–	–	–	–	–	–	> 100	–	> 100	–	> 100
N#CCCSC(=S)C1CCCC1=N (stereo unspecified)	> 100	> 100	> 100	> 100	> 100	> 100	–	–	–	–	–	> 100	–	–	–	–	–	> 100	–	> 100
c1ccc(CN2CCCCC(Sc3ccccc3)CC2)cc1 (stereo unspecified)	26.2	43.9	33.5	42.5	> 100	45.1	–	–	–	–	–	–	–	–	–	29.8	–	78.8	–	4.98
COc1ccc(C(=O)C(C(=O)C(=O)NC2C3CC4CC(C3)CC2C4)c2ccc(OC)cc2)cc1 (stereo unspecified)	> 100	> 100	> 100	> 100	> 100	> 100	–	–	–	–	–	–	–	–	–	> 100	–	> 100	–	> 100
CCCCCCCCCCCCCCCCCC(=O)OCC(C[As](=O)(O)O)OC(=O)CCCCCCCCCCCCCCCCC (stereo unspecified)	–	> 100	> 100	> 100	> 100	> 100	–	–	–	–	–	–	–	–	–	> 100	–	40.4	–	33.8
O=C(NC1CCCCC1)NS(=O)(=O)c1ccc(-n2nc3c(c2-c2ccc(Cl)cc2)Cc2ccccc2-3)cc1	> 100	> 100	> 100	46	28.8	–	36.2	4.18	34.8	19.8	–	–	13.7	–	–	–	6.45	25	2.46	> 100
